In patent US20240299361A1, “VETERINARY TRANSDERMAL GEL COMPRISING ONDANSETRON, AND RELATED METHODS” (Verté Therapeutics, LLC, priority 2023, published 2024):
Structures can show the parent of a compound that is named as a salt.

Assay: Visual solubility screen for Ondansetron HCl in solvents/excipients
Assay type: physicochemical
Description: The purpose of this study was to evaluate the solubility of Ondansetron HCl in an array of solvents/excipients to develop a stable topical formulation for transdermal application in cats and dogs. In this screen, evaluation of solubility was determined by visual examination only.
The following procedure was used to determine solubility of the API (Ondansetron HCl): • a. Label 20 mL USP Type I scintillation vials appropriately for each solvent/solvent blend that will be tested. Although API is light sensitive, clear glass vials will be used, as the study is a visual assessment only. • b. Place a stir bar in each vial. Weigh the empty vial containing stir bar and cap with inert liner. Record the tare weight. • c. Weigh approximately 3.0 g of each solvent into the designated vial. • d. Weigh approximately 30.0 mg of the API into each vial. • e. Place all closed vials on a stir plate and allow mixing for at least 30 minutes at ambient conditions. • f. Visually inspect to see if the API has completely dissolved. Record the stir time and observations. • g. If the API has dissolved, repeat steps d to f until saturation solubility is achieved or up to 10% w/w. • h. Record additional API aliquots added to the mixture. Continue stirring solutions overnight at ambient temperature to confirm solubility is maintained. • i. Record the final weight of the vial, cap, stir bar, and sample to calculate the total amount of active and/or solvent added at room temperature. • j. Heat (if applicable) all the vials in which API is not soluble to 65° C. for 1 hour and check the solubility. Allow them to cool to room temperature and check for any precipitation in the vials in which API was soluble when heated. Perform microscopy as deemed necessary. • k. Confirm the pH of buffer solutions after addition and solubilization (if applicable) of the API. • l. Record final observations and take pictures as needed to document the observations.
Upon addition of Ondansetron HCl to each solvent, vials were subjected to stirring at room temperature at 400 RPM.
For the secondary solvent solubility screen, solvents which required heating as primary systems were blended at a 1:1 ratio with other solubilizers being screened.

For `Cc1nccn1CC1CCc2c(c3ccccc3n2C)C1=O` (stereo not shown) [Ondansetron HCl], the “Solubility (visual)” value (in Citrate buffer USP (pH 3.0), without heating) was “at least 1 % w/w”, the “Solubility achieved (visual)” value (in DMSO) was no less than 10% and the “Solubility (visual)” value (in DMSO, without heating) was “at least 1 % w/w”. For the same compound, the “Solubility (visual)” value (in PEG 400, without heating) was “at least 1 % w/w”, the “Solubility (visual)” value (in absolute alcohol, without heating) was “at least 1 % w/w” and the “Solubility achieved (visual)” value (in benzyl alcohol) was no less than 10%. For the same compound, the “Solubility (visual)” value (in benzyl alcohol, without heating) was “at least 1 % w/w”, the “Solubility (visual)” value (in diethylene glycol monoethyl ether, without heating) was “at least 1 % w/w” and the “Solubility achieved (visual)” value (in propylene glycol) was no less than 10%. For the same compound, the “Solubility (visual)” value (in propylene glycol, without heating) was “at least 1 % w/w”.
